# Reference: patent US10988456B2, “O-aminoheteroaryl alkynyl-containing compound, preparation method therefor, and use thereof” (SHANGHAI INSTITUTE OF MATERIA MEDICA, CHINESE ACADEMY OF …, priority 2017, dated 2021)
# Entries after “also recorded” stand apart in the source; their conditions may differ.
# Tests used:
# RET = RET (Homo sapiens, UniProt P07949); experiment: Inhibition of receptor tyrosine kinase activity at molecular level (ELISA, Poly(Glu,Tyr)4:1 substrate phosphorylation); assay type: biochemical; details: 10 nM compound; average of two independent experiments
# Procedure: (§1) Enzyme reaction substrate Poly(Glu, Tyr)4:1 was diluted with potassium-free PBS (10 mM sodium phosphate buffer, 150 mM NaCl, pH 7.2-7.4) to 20 μg/mL. […] The reaction was conducted under 37° C. for 12-16 hours. After the liquid was removed from the wells, the plate was washed three times with 200 μL/well of T-PBS (PBS containing 0.1% Tween-20), each for 5 minutes. The enzyme plate was dried in 37° C. dryer for 1-2 hours.
# (§2) 50 μL ATP solution diluted with buffer (50 mM HEPES pH 7.4, 50 mM MgCl2, 0.5 mM MnCl2, 0.2 mM Na3VO4, 1 mM DTT) to a final concentration of 5 μM was added into each well. The compound was diluted with DMSO to a suitable concentration (1 μL/well) or the well contained the corresponding concentration of DMSO (negative control well) Then various kinase recombinant proteins diluted with 49 μL of reaction buffer was added to initiate the reaction. Each experiment required duplicate enzyme-free control well. The reaction was carried out for 1 hour on a 37° C. Shaker (100 rpm). The plate was washed three times with T-PBS. A dilution of the primary antibody PY99 was added (100 μL/well), and the reaction was conducted in a shaker at 37° C. for 0.5 hr. The plate was washed three times with T-PBS. A dilution of the horseradish peroxidase-labeled goat anti-mouse IgG secondary antibody was added (100 μL/well), and the reaction was conducted in a shaker at 37° C. for 0.5 hour. Plate was washed with T-PBS for three times. 2 mg/mL OPD coloration solution (diluted with 0.1 M citric acid-sodium citrate buffer containing 0.03% H2O2 (pH=5.4)) was added (100 μL/well), reacted for 1-10 minutes at 25° C. in dark. The reaction was quenched with 2M H2SO4 (50 μL/well), and read at 490 nm using a tunable microplate reader SPECTRA MAX 190.
# (§3) The inhibition ratio of the sample was determined by the following formula: […]
# (§4) The IC50 values were obtained via four-parameter regression analysis using the software supplied with the microplate reader.
# FGFR1 = FGFR1 (Homo sapiens, UniProt P11362); experiment: as above; assay type: biochemical; details: 10 nM compound; average of two independent experiments
# Procedure: as §1, §2, §3, §4
# KDR = KDR (Homo sapiens, UniProt P35968); experiment: as above; assay type: biochemical; details: 10 nM compound; average of two independent experiments
# Procedure: as §1, §2, §3, §4
# [1] = test system: human gastric cancer SNU-16 xenografts; experiment: Growth of subcutaneous xenografts of human gastric cancer SNU-16 in nude mice (comparative compounds study); details: for Weight (g, mean ± SD): SNU-16 tumor-bearing mice
# Procedure: The tumor tissue in the vigorous growth period was cut into 1.5 mm^3, and inoculated subcutaneously in the right axilla of nude mice under aseptic conditions. The diameter of the xenograft in nude mice was measured with a vernier caliper. The animals were randomly divided into groups when the average tumor volume was grown to about 190 mm^3. […] The diameter of the xenograft was measured twice a week during the entire experiment, and the body weight of the mice was weighed. The tumor volume (TV) was calculated as: TV=½×a×b^2, where a and b represented length and width, respectively. The relative tumor volume (RTV) was calculated based on the measured results, and the formula was: RTV=Vt/V0, wherein V0 represented the tumor volume obtained when the mice was divided and administered (i.e., d0), and Vt represented the tumor volume at each measurement. The anti-tumor activity evaluation index was the relative tumor proliferation rate T/C (%), and the calculation formula was as follows: T/C (%)=(TRTV/CRTV)×100%, wherein TRTV was TRV in treatment group; and CRTV was RTV in negative control group.
# FGFR1, sequence (P11362 22-822): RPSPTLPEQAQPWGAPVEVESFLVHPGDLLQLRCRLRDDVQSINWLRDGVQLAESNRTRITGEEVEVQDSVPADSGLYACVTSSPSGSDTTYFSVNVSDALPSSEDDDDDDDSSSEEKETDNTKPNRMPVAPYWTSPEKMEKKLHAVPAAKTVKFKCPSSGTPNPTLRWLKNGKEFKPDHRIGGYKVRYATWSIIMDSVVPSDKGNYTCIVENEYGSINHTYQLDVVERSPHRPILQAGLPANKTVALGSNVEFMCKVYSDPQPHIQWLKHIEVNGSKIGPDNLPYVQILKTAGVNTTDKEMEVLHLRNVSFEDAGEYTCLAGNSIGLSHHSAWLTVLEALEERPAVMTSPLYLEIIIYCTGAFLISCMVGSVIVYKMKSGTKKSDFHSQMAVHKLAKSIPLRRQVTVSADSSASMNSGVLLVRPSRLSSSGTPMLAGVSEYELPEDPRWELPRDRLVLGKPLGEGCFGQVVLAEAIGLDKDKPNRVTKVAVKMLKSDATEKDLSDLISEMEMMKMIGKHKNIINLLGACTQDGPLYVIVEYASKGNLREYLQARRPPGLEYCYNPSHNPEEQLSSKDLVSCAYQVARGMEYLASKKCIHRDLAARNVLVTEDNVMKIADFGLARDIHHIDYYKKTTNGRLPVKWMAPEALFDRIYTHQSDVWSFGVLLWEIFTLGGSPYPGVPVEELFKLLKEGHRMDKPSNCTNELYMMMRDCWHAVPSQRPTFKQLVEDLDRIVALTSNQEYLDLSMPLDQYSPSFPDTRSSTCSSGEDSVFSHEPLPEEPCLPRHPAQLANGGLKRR
# KDR, sequence (P35968 20-1356): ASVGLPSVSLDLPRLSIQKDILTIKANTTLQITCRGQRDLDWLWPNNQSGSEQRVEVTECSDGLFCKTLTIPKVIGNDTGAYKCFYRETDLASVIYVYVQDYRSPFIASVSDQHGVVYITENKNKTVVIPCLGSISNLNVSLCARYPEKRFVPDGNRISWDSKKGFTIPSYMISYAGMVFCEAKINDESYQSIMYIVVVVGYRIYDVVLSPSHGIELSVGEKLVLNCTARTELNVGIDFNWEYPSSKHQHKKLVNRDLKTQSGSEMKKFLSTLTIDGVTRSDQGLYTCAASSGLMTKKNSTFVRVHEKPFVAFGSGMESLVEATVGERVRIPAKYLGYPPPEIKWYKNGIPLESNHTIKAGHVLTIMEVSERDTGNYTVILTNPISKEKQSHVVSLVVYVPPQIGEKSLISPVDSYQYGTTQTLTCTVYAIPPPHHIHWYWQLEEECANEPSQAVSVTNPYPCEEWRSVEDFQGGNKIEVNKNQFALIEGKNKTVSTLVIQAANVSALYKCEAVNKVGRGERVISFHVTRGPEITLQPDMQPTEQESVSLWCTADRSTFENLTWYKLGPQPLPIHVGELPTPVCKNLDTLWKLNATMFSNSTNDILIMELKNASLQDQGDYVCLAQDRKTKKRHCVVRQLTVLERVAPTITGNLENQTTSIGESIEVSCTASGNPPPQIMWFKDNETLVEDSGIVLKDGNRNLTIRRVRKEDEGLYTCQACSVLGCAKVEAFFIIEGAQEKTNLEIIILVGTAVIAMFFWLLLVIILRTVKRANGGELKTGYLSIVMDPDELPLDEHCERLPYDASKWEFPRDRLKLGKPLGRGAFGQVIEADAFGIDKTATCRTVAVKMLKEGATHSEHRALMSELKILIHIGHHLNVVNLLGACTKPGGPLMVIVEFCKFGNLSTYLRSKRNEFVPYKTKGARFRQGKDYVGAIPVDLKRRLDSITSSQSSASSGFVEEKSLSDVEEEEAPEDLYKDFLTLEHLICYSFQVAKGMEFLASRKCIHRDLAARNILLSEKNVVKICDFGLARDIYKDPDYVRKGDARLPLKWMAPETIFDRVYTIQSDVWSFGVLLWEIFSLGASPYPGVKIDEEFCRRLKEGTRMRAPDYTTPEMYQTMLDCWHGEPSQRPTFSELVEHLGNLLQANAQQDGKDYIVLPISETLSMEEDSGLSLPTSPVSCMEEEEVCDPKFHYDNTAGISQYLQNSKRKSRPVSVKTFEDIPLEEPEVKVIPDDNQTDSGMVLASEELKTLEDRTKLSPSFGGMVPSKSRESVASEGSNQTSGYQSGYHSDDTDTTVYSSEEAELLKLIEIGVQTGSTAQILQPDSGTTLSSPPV
# RET, sequence (P07949 29-1114): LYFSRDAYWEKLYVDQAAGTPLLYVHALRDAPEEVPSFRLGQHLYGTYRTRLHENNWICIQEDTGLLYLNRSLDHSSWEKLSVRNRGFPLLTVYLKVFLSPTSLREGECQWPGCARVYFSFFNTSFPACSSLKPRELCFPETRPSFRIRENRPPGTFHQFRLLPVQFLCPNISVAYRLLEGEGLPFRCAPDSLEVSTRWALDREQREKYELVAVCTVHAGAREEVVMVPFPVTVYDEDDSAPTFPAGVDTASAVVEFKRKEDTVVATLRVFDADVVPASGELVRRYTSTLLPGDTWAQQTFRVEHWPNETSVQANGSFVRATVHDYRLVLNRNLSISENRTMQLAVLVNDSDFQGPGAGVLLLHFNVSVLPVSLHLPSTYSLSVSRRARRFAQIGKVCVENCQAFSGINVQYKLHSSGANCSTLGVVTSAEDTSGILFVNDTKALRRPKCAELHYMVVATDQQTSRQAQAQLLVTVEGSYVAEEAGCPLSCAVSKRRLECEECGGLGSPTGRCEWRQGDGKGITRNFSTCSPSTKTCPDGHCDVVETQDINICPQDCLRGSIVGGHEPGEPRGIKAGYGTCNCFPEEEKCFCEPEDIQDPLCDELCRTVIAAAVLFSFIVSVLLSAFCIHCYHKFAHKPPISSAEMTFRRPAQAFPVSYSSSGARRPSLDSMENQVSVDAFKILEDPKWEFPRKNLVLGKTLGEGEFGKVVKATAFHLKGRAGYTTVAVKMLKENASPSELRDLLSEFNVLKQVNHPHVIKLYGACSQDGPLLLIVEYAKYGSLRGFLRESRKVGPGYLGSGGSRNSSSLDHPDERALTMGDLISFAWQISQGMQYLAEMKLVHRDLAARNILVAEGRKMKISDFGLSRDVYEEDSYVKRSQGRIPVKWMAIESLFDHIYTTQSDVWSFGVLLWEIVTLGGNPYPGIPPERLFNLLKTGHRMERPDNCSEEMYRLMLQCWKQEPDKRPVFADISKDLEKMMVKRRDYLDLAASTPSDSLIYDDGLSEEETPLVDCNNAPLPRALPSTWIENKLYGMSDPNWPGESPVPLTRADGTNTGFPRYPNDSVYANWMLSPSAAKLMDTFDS
compound,measurement,setting,value
CN1CCN(Cc2ccc(NC(=O)c3ccc(F)c(C#Cc4cccnc4N)c3)cc2C(F)(F)F)CC1 [Example 2],10 nM inhibition ratio RET,RET,69.2
same,10 nM inhibition ratio FGFR1,FGFR1,73.0
same,10 nM inhibition ratio KDR,KDR,44.3
Cc1ccc(C(=O)Nc2ccc(CN3CCN(C)CC3)c(C(F)(F)F)c2)cc1C#Cc1cccnc1N [Example 3],10 nM inhibition ratio RET,RET,69.1
same,10 nM inhibition ratio FGFR1,FGFR1,52.4
same,10 nM inhibition ratio KDR,KDR,34.7
COc1ccc(C(=O)Nc2ccc(CN3CCN(C)CC3)c(C(F)(F)F)c2)cc1C#Cc1cccnc1N [Example 4],10 nM inhibition ratio RET,RET,52.0
same,10 nM inhibition ratio FGFR1,FGFR1,51.1
same,10 nM inhibition ratio KDR,KDR,4.6
CN1CCN(Cc2ccc(NC(=O)c3ccc(C#N)c(C#Cc4cccnc4N)c3)cc2C(F)(F)F)CC1 [Example 5],10 nM inhibition ratio RET,RET,40.1
same,10 nM inhibition ratio FGFR1,FGFR1,45.1
same,10 nM inhibition ratio KDR,KDR,15.2
CN1CCN(Cc2ccc(NC(=O)c3cc(F)cc(C#Cc4cccnc4N)c3)cc2C(F)(F)F)CC1 [Example 7],10 nM inhibition ratio RET,RET,92.4
same,10 nM inhibition ratio FGFR1,FGFR1,80.7
same,10 nM inhibition ratio KDR,KDR,38.9
CN1CCN(Cc2ccc(NC(=O)c3cc(C#Cc4cccnc4N)ccc3F)cc2C(F)(F)F)CC1 [Example 8],10 nM inhibition ratio RET,RET,53.4
same,10 nM inhibition ratio FGFR1,FGFR1,46.0
same,10 nM inhibition ratio KDR,KDR,30.4
CN1CCN(Cc2ccc(NC(=O)c3cc(Cl)cc(C#Cc4cccnc4N)c3)cc2C(F)(F)F)CC1 [Example 9],10 nM inhibition ratio RET,RET,83.4
same,10 nM inhibition ratio FGFR1,FGFR1,60.7
same,10 nM inhibition ratio KDR,KDR,28.9
CN1CCN(Cc2ccc(NC(=O)c3cc(C#Cc4cccnc4N)cc(C(F)(F)F)c3)cc2C(F)(F)F)CC1 [Example 10],10 nM inhibition ratio RET,RET,63.4
same,10 nM inhibition ratio FGFR1,FGFR1,36
same,10 nM inhibition ratio KDR,KDR,34.5
CN1CCN(Cc2ccc(NC(=O)c3cc(C#N)cc(C#Cc4cccnc4N)c3)cc2C(F)(F)F)CC1 [Example 11],10 nM inhibition ratio RET,RET,68.2
same,10 nM inhibition ratio FGFR1,FGFR1,54.0
same,10 nM inhibition ratio KDR,KDR,34.3
Cc1cc(C#Cc2cccnc2N)cc(C(=O)Nc2ccc(CN3CCN(C)CC3)c(C(F)(F)F)c2)c1 [Example 12],10 nM inhibition ratio RET,RET,73.2
same,10 nM inhibition ratio FGFR1,FGFR1,75.1
same,10 nM inhibition ratio KDR,KDR,24.0
COc1cc(C#Cc2cccnc2N)cc(C(=O)Nc2ccc(CN3CCN(C)CC3)c(C(F)(F)F)c2)c1 [Example 13],10 nM inhibition ratio RET,RET,64.3
same,10 nM inhibition ratio FGFR1,FGFR1,70.2
same,10 nM inhibition ratio KDR,KDR,15.1
Cc1ccc(C#Cc2cccnc2N)cc1C(=O)Nc1ccc(CN2CCN(C)CC2)c(C(F)(F)F)c1 [Example 14],10 nM inhibition ratio RET,RET,57.6
same,10 nM inhibition ratio FGFR1,FGFR1,46.1
same,10 nM inhibition ratio KDR,KDR,20.3
COc1ccc(C#Cc2cccnc2N)cc1C(=O)Nc1ccc(CN2CCN(C)CC2)c(C(F)(F)F)c1 [Example 15],10 nM inhibition ratio RET,RET,61.2
same,10 nM inhibition ratio FGFR1,FGFR1,59.9
same,10 nM inhibition ratio KDR,KDR,15.4
CN1CCN(Cc2ccc(NC(=O)c3ccc(Cl)c(C#Cc4cc(F)cnc4N)c3)cc2C(F)(F)F)CC1 [Example 16],10 nM inhibition ratio RET,RET,71.8
same,10 nM inhibition ratio FGFR1,FGFR1,70.5
same,10 nM inhibition ratio KDR,KDR,25.2
CN1CCN(Cc2ccc(NC(=O)c3ccc(Cl)c(C#Cc4cc(Cl)cnc4N)c3)cc2C(F)(F)F)CC1 [Example 17],10 nM inhibition ratio RET,RET,73.3
same,10 nM inhibition ratio FGFR1,FGFR1,68.0
same,10 nM inhibition ratio KDR,KDR,25.0
Cc1cnc(N)c(C#Cc2cc(C(=O)Nc3ccc(CN4CCN(C)CC4)c(C(F)(F)F)c3)ccc2Cl)c1 [Example 18],10 nM inhibition ratio RET,RET,58.2
same,10 nM inhibition ratio FGFR1,FGFR1,65.5
same,10 nM inhibition ratio KDR,KDR,20.3
CN1CCN(Cc2ccc(NC(=O)c3ccc(Cl)c(C#Cc4cc(C5CC5)cnc4N)c3)cc2C(F)(F)F)CC1 [Example 19],10 nM inhibition ratio RET,RET,69.4
same,10 nM inhibition ratio FGFR1,FGFR1,59.3
same,10 nM inhibition ratio KDR,KDR,13.2
CN1CCN(Cc2ccc(NC(=O)c3ccc(Cl)c(C#Cc4cc(C(F)(F)F)cnc4N)c3)cc2C(F)(F)F)CC1 [Example 20],10 nM inhibition ratio RET,RET,70.8
same,10 nM inhibition ratio FGFR1,FGFR1,71.1
same,10 nM inhibition ratio KDR,KDR,23.4
CN1CCN(Cc2ccc(NC(=O)c3ccc(Cl)c(C#Cc4cc(C#N)cnc4N)c3)cc2C(F)(F)F)CC1 [Example 21],10 nM inhibition ratio RET,RET,58.1
same,10 nM inhibition ratio FGFR1,FGFR1,44.3
same,10 nM inhibition ratio KDR,KDR,32.0
COc1cnc(N)c(C#Cc2cc(C(=O)Nc3ccc(CN4CCN(C)CC4)c(C(F)(F)F)c3)ccc2Cl)c1 [Example 22],10 nM inhibition ratio RET,RET,59.3
same,10 nM inhibition ratio FGFR1,FGFR1,75.1
same,10 nM inhibition ratio KDR,KDR,24.9
CN1CCN(Cc2ccc(NC(=O)c3ccc(Cl)c(C#Cc4cc(OC(F)(F)F)cnc4N)c3)cc2C(F)(F)F)CC1 [Example 23],10 nM inhibition ratio RET,RET,60.0
same,10 nM inhibition ratio FGFR1,FGFR1,74.1
same,10 nM inhibition ratio KDR,KDR,33.1
CN1CCN(Cc2ccc(NC(=O)c3ccc(Cl)c(C#Cc4cc(OC5CC5)cnc4N)c3)cc2C(F)(F)F)CC1 [Example 24],10 nM inhibition ratio RET,RET,66.1
same,10 nM inhibition ratio FGFR1,FGFR1,64.1
same,10 nM inhibition ratio KDR,KDR,23.5
CN1CCN(Cc2ccc(NC(=O)c3ccc(Cl)c(C#Cc4cc(OC5COC5)cnc4N)c3)cc2C(F)(F)F)CC1 [Example 25],10 nM inhibition ratio RET,RET,49.9
same,10 nM inhibition ratio FGFR1,FGFR1,54.5
same,10 nM inhibition ratio KDR,KDR,33.2
CN1CCN(Cc2ccc(NC(=O)c3ccc(Cl)c(C#Cc4cncc(N5CCOCC5)c4)c3)cc2C(F)(F)F)CC1 [HuFGFR1-113],animal deaths,"[1]; SNU-16, 20 mg/kg group",one mouse died on day 20
same,Relative tumor volume RTV (mean ± SD),"[1]; SNU-16, 20 mg/kg orally once a day, d0",1.00 ± 0.00
same,Relative tumor volume RTV (mean ± SD),"[1]; SNU-16, 20 mg/kg orally once a day, d3",1.12 ± 0.03
same,Relative tumor volume RTV (mean ± SD),"[1]; SNU-16, 20 mg/kg orally once a day, d7",0.64 ± 0.23
same,Relative tumor volume RTV (mean ± SD),"[1]; SNU-16, 20 mg/kg orally once a day, d10",0.54 ± 0.22
same,Relative tumor volume RTV (mean ± SD),"[1]; SNU-16, 20 mg/kg orally once a day, d14",0.92 ± 0.17
same,Relative tumor volume RTV (mean ± SD),"[1]; SNU-16, 20 mg/kg orally once a day, d17",1.18 ± 0.42
same,Relative tumor volume RTV (mean ± SD),"[1]; SNU-16, 20 mg/kg orally once a day, d21",1.35 ± 0.15
same,relative tumor proliferation rate T/C,"[1]; SNU-16, 20 mg/kg orally once a day, day 21",23.30%
same,animal deaths,"[1]; SNU-16, 100 mg/kg group",One mouse died on the third day; also recorded: Two mice died on the fifth day
same,toxicity / condition of the mice (in words),"[1]; SNU-16, 100 mg/kg group",significant toxicity
same,Relative tumor volume RTV (mean ± SD),"[1]; SNU-16, 100 mg/kg orally once a day (administration interrupted), d0",1.00 ± 0.00
same,Relative tumor volume RTV (mean ± SD),"[1]; SNU-16, 100 mg/kg orally once a day (administration interrupted), d3",1.32 ± 0.40
same,Relative tumor volume RTV (mean ± SD),"[1]; SNU-16, 100 mg/kg orally once a day (administration interrupted), d7",0.58 ± 0.02
same,Relative tumor volume RTV (mean ± SD),"[1]; SNU-16, 100 mg/kg orally once a day (administration interrupted), d10",0.60 ± 0.02
same,Relative tumor volume RTV (mean ± SD),"[1]; SNU-16, 100 mg/kg orally once a day (administration interrupted), d14",0.58 ± 0.35
same,Relative tumor volume RTV (mean ± SD),"[1]; SNU-16, 100 mg/kg orally once a day (administration interrupted), d17",1.16 ± 0.86
same,Relative tumor volume RTV (mean ± SD),"[1]; SNU-16, 100 mg/kg orally once a day (administration interrupted), d21",1.52 ± /
same,weight of the tumor-bearing mice (in words),"[1]; SNU-16, HuFGFR1-113 at 20 mg/kg, HuFGFR1-117 dose not stated",decreased significantly
same,"Weight (g, mean ± SD)","[1]; 20 mg/kg orally once a day, d0",23.2 ± 1.8 g
same,"Weight (g, mean ± SD)","[1]; 20 mg/kg orally once a day, d3",24.0 ± 1.5 g
same,"Weight (g, mean ± SD)","[1]; 20 mg/kg orally once a day, d7",22.4 ± 1.8 g
same,"Weight (g, mean ± SD)","[1]; 20 mg/kg orally once a day, d10",20.2 ± 1.9 g
same,"Weight (g, mean ± SD)","[1]; 20 mg/kg orally once a day, d14",19.7 ± 2.9 g
same,"Weight (g, mean ± SD)","[1]; 20 mg/kg orally once a day, d17",20.1 ± 3.7 g
same,"Weight (g, mean ± SD)","[1]; 20 mg/kg orally once a day, d21",20.3 ± 1.6 g
same,"Weight (g, mean ± SD)","[1]; 100 mg/kg orally once a day (administration interrupted), d0",23.4 ± 2.7 g
same,"Weight (g, mean ± SD)","[1]; 100 mg/kg orally once a day (administration interrupted), d3",23.1 ± 2.0 g
same,"Weight (g, mean ± SD)","[1]; 100 mg/kg orally once a day (administration interrupted), d7",20.7 ± 0.1 g
same,"Weight (g, mean ± SD)","[1]; 100 mg/kg orally once a day (administration interrupted), d10",22.1 ± 0.4 g
same,"Weight (g, mean ± SD)","[1]; 100 mg/kg orally once a day (administration interrupted), d14",25.4 ± 1.6 g
same,"Weight (g, mean ± SD)","[1]; 100 mg/kg orally once a day (administration interrupted), d17",25.5 ± 3.0 g
same,"Weight (g, mean ± SD)","[1]; 100 mg/kg orally once a day (administration interrupted), d21",21.2 ± / g
